From PMC4213378, “Pharmacokinetics and Efficacy of the Spleen Tyrosine Kinase Inhibitor R406 after Ocular Delivery for Retinoblastoma” (Pharmaceutical Research, 2014)

Assay: Storage stability of R406 in murine plasma samples
Type: physicochemical, mouse
Method: Stability: The extracted solution stability of R406 from murine plasma or vitreous was assessed at low (41.2nM), medium (370.4 nM), and high (3333.3 nM) concentrations in triplicate at room temperature. Blank murine plasma was spiked with the indicated concentrations of R406 and extracted solutions were stored at room temperature for day 0, and day 2. The short-term stability of R406 in murine plasma or vitreous at -20 °C was assessed at three concentrations in triplicate. Samples were thawed at day 1 and 2. At day 2, protein precipitation was performed and samples treated with internal standard/acetonitrile as described previously: for murine plasma samples, 50 µL of sample was quenched by addition of 100 µL of 5 mg/L OSI-906 (internal standard) in 100% acetonitrile, followed by plate sealing, shaking and centrifuging, transfer of 100 µL of supernatant injection of 10 µL of supernatant onto the LC–MS/MS system; for murine vitreous samples, 5 µL of sample quenched by addition of 45 µL of 5 mg/L OSI-906 (internal standard) in 100% acetonitrile, followed by plate sealing, shaking and centrifuging, transfer of 40 µL of supernatant injection of 10 µL of supernatant onto the LC–MS/MS system. Long term stability of R406 in murine plasma or vitreous at −80 °C was assessed. Unextracted spiked murine plasma or vitreous at low, medium, and high levels was frozen at −80 °C for 0, 7, and 14 days. Samples were thawed immediately extracted with acetonitrile/OSI-906, and quantitated. All samples were analyzed in triplicates.

For COc1cc(Nc2ncc(F)c(Nc3ccc4c(n3)NC(=O)C(C)(C)O4)n2)cc(OC)c1OC [R406], the “time extracted samples were stable” value (extracted from murine plasma, room temperature) was “at least 48 hours”, the Accuracy% (extracted plasma samples in autosampler for 2 days, injected at Day 3, High Control 3333.3 nM) was 94.4% and the Accuracy% (extracted plasma samples in autosampler for 2 days, injected at Day 3, Low Control 41.2 nM) was 97.4%. For the same molecule, the Accuracy% (extracted plasma samples in autosampler for 2 days, injected at Day 3, Middle Control 370.4 nM) was 97.6%, the Accuracy% (murine plasma at -20°C, thawed on Day 2, injected at Day 3, High Control 3333.3 nM) was 95.6% and the Accuracy% (murine plasma at -20°C, thawed on Day 2, injected at Day 3, Low Control 41.2 nM) was 109.2%. The Accuracy% (murine plasma at -20°C, thawed on Day 2, injected at Day 3, Middle Control 370.4 nM) was 98.4%, the Accuracy% (murine plasma at -20°C, thawed on Day 3, injected at Day 3, Middle Control 370.4 nM) was 101.5% and the Accuracy% (murine plasma at -80°C, injected at Day 8, High Control 3333.3 nM) was 84.3%. For the same molecule, the Accuracy% (murine plasma at -80°C, injected at Day 8, Low Control 41.2 nM) was 87.8%, the Accuracy% (murine plasma at -80°C, injected at Day 8, Middle Control 370.4 nM) was 93.1% and the Accuracy% (murine plasma at -80°C, injected at Day 15, High Control 3333.3 nM) was 89.5%. For the same molecule, the Accuracy% (murine plasma at -80°C, injected at Day 15, Low Control 41.2 nM) was 84.8%, the Accuracy% (murine plasma at -80°C, injected at Day 15, Middle Control 370.4 nM) was 84.7% and the “time spiked samples were stable” value (murine plasma stored at -20°C) was “at least 72 hours”. For the same molecule, the “time spiked samples were stable” value (murine plasma stored at -80°C) was at least 14 days.
